Reference: ChEMBL document CHEMBL5380848, “Novel Benzo Five-Membered Heterocycle Derivatives as P-Glycoprotein Inhibitors: Design, Synthesis, Molecular Docking, and Anti-Multidrug Resistance Activity” (J Med Chem, 2023)
The source made the active and inactive calls. The rule behind the calls is not given here.

Experiments:
NCI/ADR-RES [1] = test: Cytotoxicity against doxorubicin-resistant human MCF-7/ADR cells assessed as inhibition rate at 5 uM measured after […] hrs by CCK-8 assay relative to control; assay type: functional
MCF7 = test: Cytotoxicity against human MCF7 cells assessed as inhibition rate at 5 uM measured after […] hrs by CCK-8 assay relative to control; assay type: functional
[2] = molecular target: T1, ATP-dependent translocase ABCB1 (Homo sapiens, UniProt P08183); test: Inhibition of P-gp-mediated multidrug resistance in doxorubicin-resistant human MCF7/ADR cells assessed as fold reversal of resistance by measuring doxorubicin IC50 incubated for 48 hrs by CCK-8 assay relative to doxorubicin IC50 in absence of compound; assay type: cell-based; conditions: nci-adr-res
T1 sequence (P08183 whole entry): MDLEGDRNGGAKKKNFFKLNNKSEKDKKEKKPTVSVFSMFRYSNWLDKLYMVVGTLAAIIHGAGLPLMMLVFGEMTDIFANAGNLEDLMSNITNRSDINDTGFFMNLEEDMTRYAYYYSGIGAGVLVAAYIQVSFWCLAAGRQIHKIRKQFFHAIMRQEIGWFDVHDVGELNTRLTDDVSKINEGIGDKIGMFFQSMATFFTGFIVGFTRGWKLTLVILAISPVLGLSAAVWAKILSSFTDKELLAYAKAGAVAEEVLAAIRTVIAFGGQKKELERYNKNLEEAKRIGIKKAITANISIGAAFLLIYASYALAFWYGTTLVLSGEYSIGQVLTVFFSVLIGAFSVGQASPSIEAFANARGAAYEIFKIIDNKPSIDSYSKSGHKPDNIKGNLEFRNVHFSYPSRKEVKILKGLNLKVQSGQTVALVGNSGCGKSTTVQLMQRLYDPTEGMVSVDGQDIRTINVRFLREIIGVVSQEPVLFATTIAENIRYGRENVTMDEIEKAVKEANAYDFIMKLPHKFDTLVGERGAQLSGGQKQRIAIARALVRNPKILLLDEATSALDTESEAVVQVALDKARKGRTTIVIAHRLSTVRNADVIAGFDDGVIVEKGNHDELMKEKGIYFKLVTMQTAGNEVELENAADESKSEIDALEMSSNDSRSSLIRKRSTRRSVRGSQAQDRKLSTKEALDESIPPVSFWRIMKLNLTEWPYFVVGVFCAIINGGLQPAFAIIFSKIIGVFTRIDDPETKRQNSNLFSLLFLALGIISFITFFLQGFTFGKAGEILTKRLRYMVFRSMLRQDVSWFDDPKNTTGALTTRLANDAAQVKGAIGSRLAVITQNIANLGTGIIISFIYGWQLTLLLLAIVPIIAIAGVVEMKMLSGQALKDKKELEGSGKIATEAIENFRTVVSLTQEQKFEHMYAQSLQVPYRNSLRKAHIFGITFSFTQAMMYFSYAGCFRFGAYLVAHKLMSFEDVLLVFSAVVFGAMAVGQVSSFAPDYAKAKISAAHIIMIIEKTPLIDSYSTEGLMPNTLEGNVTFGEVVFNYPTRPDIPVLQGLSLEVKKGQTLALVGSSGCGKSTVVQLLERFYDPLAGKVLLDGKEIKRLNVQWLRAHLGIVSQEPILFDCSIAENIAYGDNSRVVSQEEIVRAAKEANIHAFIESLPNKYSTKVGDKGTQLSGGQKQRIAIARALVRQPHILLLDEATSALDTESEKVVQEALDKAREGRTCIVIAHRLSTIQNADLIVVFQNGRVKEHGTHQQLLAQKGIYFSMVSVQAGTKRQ

NCI/ADR-RES [3] = test: Effect on P-glycoprotein expression in doxorubicin-resistant human MCF-7/ADR cells at 2.5 to 10 uM incubated for 48 hrs by Western blotting analysis; assay type: functional, cell-based; conditions: dose 2.5-10 µM
[4] = Toxicity in BALB/c mouse xenografted with doxorubicin-resistant human MCF-7/ADR cells assessed as liver morphological changes at 10 mg/kg for every 2 days once injected through abdominal cavity for 14 days by hematoxylin and eosin staining based analysis; assay type: organism-based; conditions: in vivo, ip, 336 h, time 14 day
NCI/ADR-RES [5] = test: In vivo resistance reversal activity in doxorubicin-resistant human MCF-7/ADR cells xenografted in BALB/c mouse model assessed as reduction in tumor volume at 10 mg/kg for every 2 days once injected through abdominal cavity for 14 days; assay type: functional, organism-based; conditions: time 14.0 day
NCI/ADR-RES [6] = test: Effect on ABCC1 gene expression in doxorubicin-resistant human MCF-7/ADR cells at 5 uM incubated for 12 hrs; assay type: functional, cell-based
NCI/ADR-RES [7] = test: Effect on ABCA2 gene expression in doxorubicin-resistant human MCF-7/ADR cells at 5 uM incubated for 12 hrs; assay type: functional, cell-based
NCI/ADR-RES [8] = test: Effect on ABCC4 gene expression in doxorubicin-resistant human MCF-7/ADR cells at 5 uM incubated for 12 hrs; assay type: functional, cell-based
NCI/ADR-RES [9] = test: In vivo resistance reversal activity in doxorubicin-resistant human MCF-7/ADR cells xenografted in BALB/c mouse model assessed as potentiation of doxorubicin antitumor effect by measuring reduction in tumor volume at 10 mg/kg for every 2 days once injected through abdominal cavity for 14 days; assay type: functional, organism-based; conditions: time 14.0 day
[10] = Toxicity in BALB/c mouse xenografted with doxorubicin-resistant human MCF-7/ADR cells assessed as heart morphological changes at 10 mg/kg for every 2 days once injected through abdominal cavity for 14 days by hematoxylin and eosin staining based analysis; assay type: organism-based; conditions: in vivo, ip, 336 h, time 14 day
NCI/ADR-RES [11] = test: In vivo resistance reversal activity in doxorubicin-resistant human MCF-7/ADR cells xenografted in BALB/c mouse model assessed as reduction in tumor weight at 10 mg/kg for every 2 days once injected through abdominal cavity for 14 days; assay type: functional, organism-based; conditions: time 14.0 day
NCI/ADR-RES [12] = test: Effect on ABCD4 gene expression in doxorubicin-resistant human MCF-7/ADR cells at 5 uM incubated for 12 hrs; assay type: functional, cell-based
[13] = Toxicity in BALB/c mouse xenografted with doxorubicin-resistant human MCF-7/ADR cells assessed as spleen morphological changes at 10 mg/kg for every 2 days once injected through abdominal cavity for 14 days by hematoxylin and eosin staining based analysis; assay type: organism-based; conditions: in vivo, ip, 336 h, time 14 day
[14] = Toxicity in BALB/c mouse xenografted with doxorubicin-resistant human MCF-7/ADR cells assessed as lung morphological changes at 10 mg/kg for every 2 days once injected through abdominal cavity for 14 days by hematoxylin and eosin staining based analysis; assay type: organism-based; conditions: in vivo, ip, 336 h, time 14 day
NCI/ADR-RES [15] = test: In vivo resistance reversal activity in doxorubicin-resistant human MCF-7/ADR cells xenografted in BALB/c mouse model assessed as potentiation of doxorubicin antitumor effect by measuring reduction in tumor weight at 10 mg/kg for every 2 days once injected through abdominal cavity for 14 days; assay type: functional, organism-based; conditions: time 14.0 day
[16] = molecular target: T1, ATP-dependent translocase ABCB1; test: Inhibition of P-glycoprotein mediated Rhodamine-123 efflux in doxorubicin-resistant human MCF-7/ADR cells assessed as fluorescence intensity of rhodamine-123 accumulation incubated for 30 mins by flow cytometry analysis; assay type: cell-based; conditions: nci-adr-res, 0.5 h, at 2.5 to 10 µM, dose 2.5-10 µM
[17] = Toxicity in BALB/c mouse xenografted with doxorubicin-resistant human MCF-7/ADR cells assessed as kidney morphological changes at 10 mg/kg for every 2 days once injected through abdominal cavity for 14 days by hematoxylin and eosin staining based analysis; assay type: organism-based; conditions: in vivo, ip, 336 h, time 14 day
NCI/ADR-RES [18] = test: Effect on ABCB6 gene expression in doxorubicin-resistant human MCF-7/ADR cells at 5 uM incubated for 12 hrs; assay type: functional, cell-based
[19] = Toxicity in BALB/c mouse xenografted with doxorubicin-resistant human MCF-7/ADR cells assessed as body weight change at 10 mg/kg for every 2 days once injected through abdominal cavity for 14 days; assay type: organism-based; conditions: in vivo, ip, 336 h, time 14 day
NCI/ADR-RES [20] = test: Effect on ABCF2 gene expression in doxorubicin-resistant human MCF-7/ADR cells at 5 uM incubated for 12 hrs; assay type: functional, cell-based
[21] = molecular target: T1, ATP-dependent translocase ABCB1; test: Binding affinity to P-glycoprotein in doxorubicin-resistant human MCF-7/ADR cells assessed as thermal stability measured 40 to 60 degC at 0.5 to 2.5 uM incubated for 30 mins by CETSA; assay type: cell-based; conditions: nci-adr-res, 0.5 h, dose 0.5-2.5 µM
NCI/ADR-RES [22] = test: Effect on ABCG2 gene expression in doxorubicin-resistant human MCF-7/ADR cells at 5 uM incubated for 12 hrs; assay type: functional, cell-based

| SMILES | inhibition at 5 µM (NCI/ADR-RES [1]) [%] | inhibition at 5 µM (MCF7) [%] | fold change (FC) [2] | further results |
| --- | --- | --- | --- | --- |
| COc1cc2c(cc1OC)CN(C(=O)c1cc3cc(-c4ccc(NC(=O)c5ccc(Cl)cc5)cc4)ccc3n1Cc1ccc(F)cc1)CC2 | 16.6 | 11.2 | 53.5 | – |
| COc1cccc(Cn2c(C(=O)N3CCc4cc(OC)c(OC)cc4C3)cc3cc(-c4ccc(NC(=O)c5ccc(Cl)cc5)cc4)ccc32)c1 | 5 | 5 | 26.5 | – |
| COc1cc2c(cc1OC)CN(C(=O)c1cc3cc(-c4ccc(NC(=O)c5ccc(Cl)cc5)cc4)ccc3n1Cc1ccc(Cl)cc1)CC2 | -3.3 | 2.6 | 25.9 | – |
| COc1cc2c(cc1OC)CN(C(=O)c1cc3cc(-c4ccc(NC(=O)c5ccccc5F)cc4)ccc3[nH]1)CC2 | 18.7 | 13.9 | 469.8 | – |
| COc1cc2c(cc1OC)CN(C(=O)c1cc3cc(-c4ccc(NC(=O)c5ccc(I)cc5)cc4)ccc3[nH]1)CC2 | 12.9 | 15.4 | 83 | – |
| COc1cc2c(cc1OC)CN(C(=O)c1cc3cc(-c4ccc(NC(=O)c5ccc(Cl)cc5)cc4)ccc3n1Cc1ccc(Br)cc1)CC2 | -13.8 | 3.5 | 31.1 | – |
| COc1cc2c(cc1OC)CN(C(=O)c1cc3cc(-c4ccc(NC(=O)c5ccc(Cl)cc5)cc4)ccc3n1Cc1ccc(OC(F)(F)F)cc1)CC2 | 2.8 | 0.3 | 29.2 | – |
| COc1cc2c(cc1OC)CN(C(=O)c1cc3cc(-c4ccc(NC(=O)c5cc(OC)c(OC)c(OC)c5)cc4)ccc3[nH]1)CC2 | 10.6 | 14.1 | 93.6 | – |
| COc1cc2c(cc1OC)CN(C(=O)c1cc3cc(-c4ccc(NC(=O)c5ccc(C#N)cc5)cc4)ccc3[nH]1)CC2 | 19.5 | 10.7 | 39.1 | – |
| COc1cc2c(cc1OC)CN(C(=O)c1cc3cc(-c4ccc(NC(=O)c5ccc(Br)cc5)cc4)ccc3[nH]1)CC2 | 19.1 | 10.2 | 201.7 | – |
| COc1cc2c(cc1OC)CN(C(=O)c1cc3cc(-c4ccc(NC(=O)c5cccc(Cl)c5)cc4)ccc3[nH]1)CC2 | 17.7 | 12 | 431.5 | – |
| COc1cc2c(cc1OC)CN(C(=O)c1cc3cc(-c4ccc(NC(=O)c5ccc(Cl)cc5)cc4)ccc3[nH]1)CC2 | 25 | 21.7 | 6011 | Activity (NCI/ADR-RES [3]): inactive; Activity [4]: Non-Toxic; Activity (NCI/ADR-RES [5]): inactive; Activity (NCI/ADR-RES [6]): inactive; Activity (NCI/ADR-RES [7]): inactive; Activity (NCI/ADR-RES [8]): inactive; Activity (NCI/ADR-RES [9]): Active; Activity [10]: Non-Toxic; Activity (NCI/ADR-RES [11]): inactive; Activity (NCI/ADR-RES [12]): inactive; Activity [13]: Non-Toxic; Activity [14]: Non-Toxic; Activity (NCI/ADR-RES [15]): Active; inhibition (INH) [16]: Dose-Dependent Effect; Activity [17]: Non-Toxic; Activity (NCI/ADR-RES [18]): inactive; Activity [19]: Non-Toxic; Activity (NCI/ADR-RES [20]): inactive; Activity [21]: Active; Activity (NCI/ADR-RES [22]): inactive |
| COc1ccc(Cn2c(C(=O)N3CCc4cc(OC)c(OC)cc4C3)cc3cc(-c4ccc(NC(=O)c5ccc(Cl)cc5)cc4)ccc32)cc1 | 18.1 | 3.2 | 105.6 | – |
| COc1cc2c(cc1OC)CN(CCc1ccc(NC(=O)c3cc(OC)c(OC)cc3NC(=O)c3cnc4ccccc4c3)cc1)CC2 | 48.9 | 42.8 | 283.2 | – |
| COc1cc2c(cc1OC)CN(C(=O)c1cc3cc(-c4ccc(NC(=O)c5ccc(Cl)cc5)cc4)ccc3n1Cc1ccccc1)CC2 | 6.9 | 10.1 | 55.4 | – |
| COc1cc2c(cc1OC)CN(C(=O)c1cc3cc(-c4ccc(NC(=O)c5ccc(Cl)cc5)cc4)ccc3n1Cc1ccc([N+](=O)[O-])cc1)CC2 | 12.8 | 19.1 | 25.9 | – |
